Source: patent US8710068B2, “Method of treating cancer using a survivin inhibitor” (The Trustees Of The University Of Pennsylvania, priority 2009, dated 2014)

Assays:
AsPC1 tumor xenograft [1] = test: Immunohistochemistry of tumor xenograft (Ki67, TUNEL); assay type: in vivo, athymic mice
Text: FIG. 14 illustrates the immunohistochemistry analysis of tumor xenograft following treatment with S12 or PBS.
We performed immunohistochemistry studies to analyze the cellular effects of S12 treatment on the tumors. […] In addition, we examined apoptosis using the TUNEL assay.

HeLa cells = test: BrdU incorporation DNA synthesis assay (FACS), HeLa; assay type: cell-based, human; conditions: 4 hours treatment then one-hour BrdU
Protocol: BrdU-labeled cells were analyzed by FACS. The percentage of BrdU-positive cells is indicated.
HeLa cells were treated with S12, aphidicolin, or DMSO (control) for 4 hours. BrdU was then added to the medium followed by an additional incubation of 1 hour. The amount of BrdU was examined by staining with anti-BrdU antibody and FACS analysis. The percentage of BrdU-positive cells is shown.
To establish the specificity of the biological activities of the Survivin targeting we examined whether the compounds affect DNA synthesis. HeLa cells were treated with Aphidicolin, S2 or DMSO for 4 hours, followed by one-hour incubation with BrdU. The cells were then collected, fixed and stained with FITC-labeled anti-BrdU antibody.

[2] = tested on: AsPC1 pancreatic cancer cells; test: MTT tumor cell proliferation assay, AsPC1; assay type: cell-based, human; conditions: AsPC1, 5, 10, 20, or 50 μg/ml for 48 hours
Protocol: FIG. 3 illustrates the effect of S2 and its analogs on tumor cell proliferation. Cells were treated with DMSO or Survivin targeting molecules at the indicated concentration for 48 hours. The percentage of viable cells was evaluated by MTT assay. (A) AsPC1; (B) HeLa; (C) SKBR3; (D) DAOY.
FIG. 18 illustrates the effect of SBDO3, SN2, or SDC1 on tumor cell proliferation. (A) AsPC1 cells were treated with DMSO or the Survivin targeting molecules SBDO3 or SN2 at the indicated concentration for 48 hours. (B) SKBR3 cells were treated with DMSO or SDC1 for 48 hours. The percentage of viable cells was evaluated by MTT assay.
S2 and its analogs (S10, S11, S12, and S13) were tested for the ability to inhibit tumor cell proliferation by MTT assay. The AsPC1 pancreatic cancer cells were treated with DMSO, a control molecule SC2, or the Survivin-targeting compounds at the concentration of 5, 10, 20, or 50 μg/ml for 48 hours. The number of viable cells was evaluated by MTT.
SBDO3, SN2 and SDC1 were tested for the ability to inhibit tumor cell proliferation by MTT assay. The AsPC1 pancreatic cancer cells were treated with DMSO or the Survivin-targeting compounds at the concentration of 5, 10, 20, or 50 μg/ml for 48 hours. The number of viable cells was evaluated by MTT.

HCT116(p53−/−) cells = test: MTT viability assay, HCT116(p53−/−); assay type: cell-based; conditions: 48 hours
Protocol: (§1) FIG. 4 illustrates the effects of S12 on proliferation of p53-positive and p53-negative cancer cells. (A) HCT116(p53+/+) or HCT116(p53−/−) cells were treated with DMSO or S12 at the indicated concentrations for 48 hours. The percentage of viable cells was evaluated by MTT assay.
(§2) Thus, inhibition of cell proliferation by S12 is independent of p53 status.

Sur-V89Y = molecular target: T1, Sur-V89Y (Homo sapiens, UniProt O15392, V89Y); test: ITC binding to Survivin mutant V89Y; conditions: in words
T1 construct: made in house; host or cells: bacteria
Protocol: (§3) FIG. 5 illustrates an analysis of S12-Survivin binding with isothermal titration calorimetry (ITC). Single-site point mutagenesis was performed to create the Survivin mutants F86A and V89Y. The native and the mutant proteins were produced and purified from bacteria.
(§4) In order to examine the specificity of the binding, we generated point mutations on the Survivin protein at the site presumably targeted by S12. The two mutations were substitutions of phenylalanine 86 with alanine (F86A) and valine 89 with tyrosine (V89Y). These two altered sites are also adjacent to the interface involved in dimerization of the Survivin protein. Based on structural analyses, we predict that alterations of either of these two amino acid residues may abolish the binding of S12 without affecting the overall structure of the Survivin protein.

HCT116(p53+/+) cells = test: MTT viability assay, HCT116(p53+/+); assay type: cell-based; conditions: 48 hours
Protocol: as §1, §2

Survivin protein = molecular target: T2, Survivin protein (Homo sapiens, UniProt O15392); test: Isothermal titration calorimetry (ITC) binding to native Survivin
T2 construct: made in house; host or cells: bacteria
Protocol: as §3
FIG. 16 illustrates the isothermal titration calorimetry profile of the binding of SBDO3 to the Survivin homodimer.
as §4
We tested the binding of the Survivin target molecules to Survivin by isothermal titration calorimetry.

AsPC1 tumor xenograft [3] = test: AsPC1 mouse xenograft tumor growth; assay type: in vivo, athymic mice
Protocol: FIG. 13 illustrates S12 inhibition of tumor growth in vivo. (A) AsPC1 cells were injected subcutaneously into the mid-dorsum of athymic mice. S12 was administered 10 days after the injection at the concentration of 5 mg/kg (blue triangles; middle line on the graph, n=4) or 15 mg/kg (red triangles; lower line on the graph; n=3). The control group was treated with PBS containing DMSO only (black square; upper line on the graph). The results represent the mean tumor volume+/− standard error (P<0.05). (B) In a second set of studies S12 was administered at the concentration of 15 mg/kg or 50 mg/kg (n=3). In both studies the control group was treated with PBS containing DMSO only. The results represented the mean tumor volume+/− standard error.
The effect of S12 on tumor growth was examined using a mouse xenograft model. The human pancreatic cell line AsPC1 was injected subcutaneously into athymic mice and formed palpable tumors within 10 days. S12 was then administered at the concentration of 5 mg/kg or 15 mg/kg three times per week until the end point of the experiment. The size of the tumors was monitored for up to 48 days after the initial grafting.

T2 sequence (O15392 whole entry): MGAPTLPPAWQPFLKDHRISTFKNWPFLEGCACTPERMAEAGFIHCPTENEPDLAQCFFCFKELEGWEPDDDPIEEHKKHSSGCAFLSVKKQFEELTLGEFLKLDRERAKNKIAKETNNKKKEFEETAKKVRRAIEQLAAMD
T1 sequence (O15392 whole entry V89Y): as the sequence (O15392 whole entry) above, with V89Y counted along it

Compound: O=C(CC1(O)C(=O)Nc2ccc(Br)cc21)c1ccc2c(c1)OCO2 (stereo not drawn) [S12]
- proliferation of tumor cells (Ki67) (AsPC1 tumor xenograft [1]; immunohistochemistry of tumor xenograft): drastically reduced proliferation of tumor cells
- apoptosis in the tumors (TUNEL assay) (AsPC1 tumor xenograft [1]; tumor xenograft): increased the levels of apoptosis
- DNA synthesis (BrdU incorporation) (HeLa cells): did not block DNA synthesis
- inhibition of cell proliferation / cell viability [2]: can inhibit cell proliferation and reduce cell viability in a dose-dependent manner
- reduction of cell viability (HCT116(p53−/−) cells): equally effective at reducing cell viability
- binding to mutant Sur-V89Y (Sur-V89Y): did not bind
- reduction of cell viability (HCT116(p53+/+) cells): equally effective at reducing cell viability
- binding to the Survivin protein (Survivin protein; ITC, in words): can bind to the Survivin protein
- N (ITC stoichiometry) (Survivin protein; isothermal titration calorimetry, native Survivin): 1.00
- Kd (Survivin protein; isothermal titration calorimetry, native Survivin, read-out: K (ITC binding constant) (converted)): 224 nM
- tumor volume (AsPC1 tumor xenograft [3]; 5 mg/kg or 15 mg/kg three times per week, up to 48 days): significantly lowered the tumor volume in a dose-dependent manner
- tumor regression (AsPC1 tumor xenograft [3]; dose raised to 50 mg/kg): enhancement of tumor regression
